Source: patent US20080176936A1, “Classes of Compounds that Interact with Integrins” (priority 2005, published 2008)

molecular target: T1, αllbβ3 integrin (Homo sapiens, UniProt P05106+P08514); assay: ELISA: inhibition of binding of αllbβ3 integrin membrane preparation to coated extracellular matrix protein; conditions: substrate fibrinogen, human platelet membrane preparation
T1 construct: Human platelet membrane preparations were used as a source of αllbβ3 integrin; from tissue; host or cells: human platelets (membrane preparation)
In short: (§1)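 Wells were coated with fibrinogen or vitronectin (10 µg/well), and integrin binding was measured by ELISA. αIIbβ3 came from human platelet membranes and αVβ3 from WM-115 cells, each preincubated with compound. Bound integrin was detected with a rabbit anti-β3 antibody, an HRP secondary and a colorimetric readout.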

T1 sequence (P08514 32-887 limits assumed): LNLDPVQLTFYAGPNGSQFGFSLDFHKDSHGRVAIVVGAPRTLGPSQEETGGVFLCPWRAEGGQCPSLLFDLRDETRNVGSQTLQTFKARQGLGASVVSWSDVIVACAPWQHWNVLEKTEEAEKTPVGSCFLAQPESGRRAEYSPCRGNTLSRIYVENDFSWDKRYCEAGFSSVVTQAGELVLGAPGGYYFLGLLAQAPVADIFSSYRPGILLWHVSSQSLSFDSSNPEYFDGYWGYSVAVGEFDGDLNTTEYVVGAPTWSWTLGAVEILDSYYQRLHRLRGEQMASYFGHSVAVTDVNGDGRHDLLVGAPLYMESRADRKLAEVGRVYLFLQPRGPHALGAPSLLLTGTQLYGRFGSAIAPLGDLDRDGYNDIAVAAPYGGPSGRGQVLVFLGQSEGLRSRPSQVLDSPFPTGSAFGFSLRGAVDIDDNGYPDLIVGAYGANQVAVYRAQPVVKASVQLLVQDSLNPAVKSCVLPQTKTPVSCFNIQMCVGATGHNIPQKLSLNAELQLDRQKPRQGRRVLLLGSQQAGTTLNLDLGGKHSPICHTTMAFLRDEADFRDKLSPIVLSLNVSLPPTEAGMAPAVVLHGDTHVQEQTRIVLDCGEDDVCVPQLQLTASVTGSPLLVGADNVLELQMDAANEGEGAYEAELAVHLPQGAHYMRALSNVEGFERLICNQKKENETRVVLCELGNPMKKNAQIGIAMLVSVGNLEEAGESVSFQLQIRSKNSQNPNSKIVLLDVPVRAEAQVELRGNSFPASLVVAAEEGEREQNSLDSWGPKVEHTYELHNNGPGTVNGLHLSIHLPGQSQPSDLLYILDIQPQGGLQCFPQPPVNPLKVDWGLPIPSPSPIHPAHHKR
T1 sequence (P08514 891-1039 partner limits assumed): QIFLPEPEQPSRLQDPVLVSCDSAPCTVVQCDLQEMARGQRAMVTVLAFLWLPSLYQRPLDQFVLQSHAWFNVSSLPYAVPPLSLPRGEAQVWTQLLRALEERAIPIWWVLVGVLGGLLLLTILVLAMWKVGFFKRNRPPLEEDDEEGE
T1 sequence (P05106 27-788): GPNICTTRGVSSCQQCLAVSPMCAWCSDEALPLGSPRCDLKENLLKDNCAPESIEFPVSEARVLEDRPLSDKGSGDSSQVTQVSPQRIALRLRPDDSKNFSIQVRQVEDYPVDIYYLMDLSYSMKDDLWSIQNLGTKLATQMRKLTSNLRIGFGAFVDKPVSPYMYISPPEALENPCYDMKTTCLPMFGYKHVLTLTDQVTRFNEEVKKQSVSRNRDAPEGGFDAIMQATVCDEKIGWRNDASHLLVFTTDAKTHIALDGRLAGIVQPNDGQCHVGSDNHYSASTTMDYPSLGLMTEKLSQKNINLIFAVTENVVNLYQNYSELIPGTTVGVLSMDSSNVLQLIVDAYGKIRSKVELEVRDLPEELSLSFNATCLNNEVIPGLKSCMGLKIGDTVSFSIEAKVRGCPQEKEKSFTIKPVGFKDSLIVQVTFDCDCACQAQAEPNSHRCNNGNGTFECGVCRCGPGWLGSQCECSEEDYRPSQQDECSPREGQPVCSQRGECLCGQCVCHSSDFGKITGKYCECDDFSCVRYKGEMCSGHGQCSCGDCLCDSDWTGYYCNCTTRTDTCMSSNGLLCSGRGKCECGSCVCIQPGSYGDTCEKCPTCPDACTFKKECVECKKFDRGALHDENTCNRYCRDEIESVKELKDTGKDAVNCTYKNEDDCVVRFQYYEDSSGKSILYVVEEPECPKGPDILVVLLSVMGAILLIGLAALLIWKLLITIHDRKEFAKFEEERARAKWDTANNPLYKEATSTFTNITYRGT

Row | Compound | INHIBITION @ 250 uM RECEPTOR allBb3 SUBSTRATE FIBRINOGEN
1 | COC(=O)COCC1OC(OC)C(NC(=O)CCCNC(=N)N)C(OCc2ccccc2)C1O (single isomer, unassigned) [Compound 126] | ++ (61% to 80% inhibition at 250 micromolar)
2 | COC1OC(COCC(=O)O)C(O)C(OCc2ccccc2)C1NC(=O)c1ccc(CN)cc1 (single isomer, unassigned) [Compound 127] | − (0% to 35% inhibition at 250 micromolar)
3 | COC1OC(COCC(=O)O)C(O)C(OCc2ccccc2)C1NC(=O)c1ccc(CNC(=N)N)cc1 (single isomer, unassigned) [Compound 128] | − (0% to 35% inhibition at 250 micromolar)
4 | COC1OC(COCC(=O)O)C(O)C(OCc2ccccc2)C1NC(=O)c1ccc(CNC(=N)N)cc1 (single isomer, unassigned) [Compound 129] | − (0% to 35% inhibition at 250 micromolar)
5 | COC1OC(COCC(=O)O)C(O)C(OCc2ccccc2)C1NC(=O)c1cc(N)cc(N)c1 (single isomer, unassigned) [Compound 130] | − (0% to 35% inhibition at 250 micromolar)
6 | COC1OC(COCC(=O)O)C(O)C(OCc2ccccc2)C1NC(=O)c1cc(N)cc(N)c1 (single isomer, unassigned) [Compound 131] | + (36% to 60% inhibition at 250 micromolar)
7 | COC1OC(COCC(=O)O)C(O)C(OCc2ccccc2)C1NC(=O)C1CCNCC1 (single isomer, unassigned) [Compound 134] | +++ (81% to 100% inhibition at 250 micromolar)
8 | COC1OC(COCC(=O)O)C(O)C(OCc2ccccc2)C1NC(=O)C1CCNCC1 (single isomer, unassigned) [Compound 136] | +++ (81% to 100% inhibition at 250 micromolar)
9 | COC1OC(COCC(=O)O)C(O)C(OCc2ccccc2)C1NC(=O)C1CCC(CN)CC1 (single isomer, unassigned) [Compound 137] | +++ (81% to 100% inhibition at 250 micromolar)
10 | COC1OC(COCC(=O)O)C(O)C(OCc2ccccc2)C1NC(=O)C1CCC(CN)CC1 (single isomer, unassigned) [Compound 138] | − (0% to 35% inhibition at 250 micromolar)
11 | Nc1cccc(C(=O)N[C@H]2C(O)O[C@H](COCC(=O)O)[C@@H](O)[C@@H]2OCc2ccc(Br)cc2)c1 (some centres unmarked) [Compound 2] | ++ (61% to 80% inhibition at 250 micromolar)
12 | Nc1cccc(COC[C@H]2OC[C@H](NC(=O)c3ccccc3)[C@@H](OCC(=O)O)[C@@H]2O)c1 [Compound 56] | − (0% to 35% inhibition at 250 micromolar)
13 | CCOC1O[C@H](COCc2cccc(N)c2)[C@@H](O)[C@H](OCc2ccc(C(=O)O)cc2)[C@H]1NC(=O)c1ccc(Cl)cc1 (some centres unmarked) [Compound 65] | − (0% to 35% inhibition at 250 micromolar)

same assay, conditions: substrate vitronectin, human platelet membrane preparation

Row | Compound | INHIBITION 250 uM RECEPTOR allBb3 SUBSTRATE VITRONECTIN
14 | COC(=O)COCC1OC(OC)C(NC(=O)CCCNC(=N)N)C(OCc2ccccc2)C1O (single isomer, unassigned) [Compound 126] | +++ (81% to 100% inhibition at 250 micromolar)
15 | COC1OC(COCC(=O)O)C(O)C(OCc2ccccc2)C1NC(=O)c1ccc(CN)cc1 (single isomer, unassigned) [Compound 127] | − (0% to 35% inhibition at 250 micromolar)
16 | COC1OC(COCC(=O)O)C(O)C(OCc2ccccc2)C1NC(=O)c1ccc(CNC(=N)N)cc1 (single isomer, unassigned) [Compound 128] | +++ (81% to 100% inhibition at 250 micromolar)
17 | COC1OC(COCC(=O)O)C(O)C(OCc2ccccc2)C1NC(=O)c1ccc(CNC(=N)N)cc1 (single isomer, unassigned) [Compound 129] | +++ (81% to 100% inhibition at 250 micromolar)
18 | COC1OC(COCC(=O)O)C(O)C(OCc2ccccc2)C1NC(=O)c1cc(N)cc(N)c1 (single isomer, unassigned) [Compound 130] | +++ (81% to 100% inhibition at 250 micromolar)
19 | COC1OC(COCC(=O)O)C(O)C(OCc2ccccc2)C1NC(=O)c1cc(N)cc(N)c1 (single isomer, unassigned) [Compound 131] | +++ (81% to 100% inhibition at 250 micromolar)
20 | COC1OC(COCC(=O)O)C(O)C(OCc2ccccc2)C1NC(=O)C1CCNCC1 (single isomer, unassigned) [Compound 134] | +++ (81% to 100% inhibition at 250 micromolar)
21 | COC1OC(COCC(=O)O)C(O)C(OCc2ccccc2)C1NC(=O)C1CCC(CN)CC1 (single isomer, unassigned) [Compound 137] | +++ (81% to 100% inhibition at 250 micromolar)
22 | COC1OC(COCC(=O)O)C(O)C(OCc2ccccc2)C1NC(=O)C1CCC(CN)CC1 (single isomer, unassigned) [Compound 138] | +++ (81% to 100% inhibition at 250 micromolar)
23 | Nc1cccc(C(=O)N[C@H]2C(O)O[C@H](COCC(=O)O)[C@@H](O)[C@@H]2OCc2ccc(Br)cc2)c1 (some centres unmarked) [Compound 2] | +++ (81% to 100% inhibition at 250 micromolar)
24 | Nc1cccc(COC[C@H]2OC[C@H](NC(=O)c3ccccc3)[C@@H](OCC(=O)O)[C@@H]2O)c1 [Compound 56] | +++ (81% to 100% inhibition at 250 micromolar)
25 | CCOC1O[C@H](COCc2cccc(N)c2)[C@@H](O)[C@H](OCc2ccc(C(=O)O)cc2)[C@H]1NC(=O)c1ccc(Cl)cc1 (some centres unmarked) [Compound 65] | +++ (81% to 100% inhibition at 250 micromolar)

molecular target: T2, αVβ3 integrin (Homo sapiens, UniProt P05106+P06756); assay: ELISA: inhibition of binding of αVβ3 integrin (source WM-115 cell line) to coated extracellular matrix protein; conditions: WM-115 cell line as integrin source
T2 construct: the cell line WM-115 was used as a source of αVβ3 integrin; endogenous in cells; host or cells: WM-115 cell line
In short: as §1

T2 sequence (P06756 31-889 limits assumed): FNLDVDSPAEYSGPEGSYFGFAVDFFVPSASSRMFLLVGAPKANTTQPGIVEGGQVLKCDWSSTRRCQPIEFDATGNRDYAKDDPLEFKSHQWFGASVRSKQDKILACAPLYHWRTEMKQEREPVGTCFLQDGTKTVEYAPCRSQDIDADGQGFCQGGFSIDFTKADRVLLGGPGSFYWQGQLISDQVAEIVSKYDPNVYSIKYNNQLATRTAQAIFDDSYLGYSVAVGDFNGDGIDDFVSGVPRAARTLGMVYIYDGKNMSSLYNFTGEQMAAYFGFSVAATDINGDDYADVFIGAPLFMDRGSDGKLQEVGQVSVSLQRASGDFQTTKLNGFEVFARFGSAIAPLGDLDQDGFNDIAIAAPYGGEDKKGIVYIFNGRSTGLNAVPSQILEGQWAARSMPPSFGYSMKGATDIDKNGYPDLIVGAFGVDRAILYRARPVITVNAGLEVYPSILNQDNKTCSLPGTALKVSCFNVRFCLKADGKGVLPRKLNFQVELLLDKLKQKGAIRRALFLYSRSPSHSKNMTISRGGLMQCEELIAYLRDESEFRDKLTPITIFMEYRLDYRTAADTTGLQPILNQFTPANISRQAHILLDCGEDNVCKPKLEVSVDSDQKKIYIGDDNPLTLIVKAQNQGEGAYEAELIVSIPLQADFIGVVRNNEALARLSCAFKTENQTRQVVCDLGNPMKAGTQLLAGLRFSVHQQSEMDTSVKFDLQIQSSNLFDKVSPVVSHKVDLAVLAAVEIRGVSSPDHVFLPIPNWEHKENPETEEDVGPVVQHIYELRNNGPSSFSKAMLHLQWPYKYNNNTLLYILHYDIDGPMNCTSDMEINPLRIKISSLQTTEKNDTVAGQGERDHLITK
T2 sequence (P06756 891-1048 partner limits assumed): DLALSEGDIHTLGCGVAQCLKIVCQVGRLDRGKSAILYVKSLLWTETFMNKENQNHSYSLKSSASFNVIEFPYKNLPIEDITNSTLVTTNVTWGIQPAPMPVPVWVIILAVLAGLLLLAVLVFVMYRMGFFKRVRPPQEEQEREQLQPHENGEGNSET
T2 sequence (P05106 27-788): as the sequence (P05106 27-788) above

Row | Compound | INHIBITION 250 uM RECEPTOR aVb3 SUBSTRATE FIBRINOGEN
26 | COC(=O)COCC1OC(OC)C(NC(=O)CCCNC(=N)N)C(OCc2ccccc2)C1O (single isomer, unassigned) [Compound 126] | +++ (81% to 100% inhibition at 250 micromolar)
27 | COC1OC(COCC(=O)O)C(O)C(OCc2ccccc2)C1NC(=O)c1ccc(CN)cc1 (single isomer, unassigned) [Compound 127] | − (0% to 35% inhibition at 250 micromolar)
28 | COC1OC(COCC(=O)O)C(O)C(OCc2ccccc2)C1NC(=O)c1ccc(CNC(=N)N)cc1 (single isomer, unassigned) [Compound 128] | − (0% to 35% inhibition at 250 micromolar)
29 | COC1OC(COCC(=O)O)C(O)C(OCc2ccccc2)C1NC(=O)c1ccc(CNC(=N)N)cc1 (single isomer, unassigned) [Compound 129] | − (0% to 35% inhibition at 250 micromolar)
30 | COC1OC(COCC(=O)O)C(O)C(OCc2ccccc2)C1NC(=O)c1cc(N)cc(N)c1 (single isomer, unassigned) [Compound 130] | − (0% to 35% inhibition at 250 micromolar)
31 | COC1OC(COCC(=O)O)C(O)C(OCc2ccccc2)C1NC(=O)c1cc(N)cc(N)c1 (single isomer, unassigned) [Compound 131] | − (0% to 35% inhibition at 250 micromolar)
32 | COC1OC(COCC(=O)O)C(O)C(OCc2ccccc2)C1NC(=O)C1CCNCC1 (single isomer, unassigned) [Compound 134] | − (0% to 35% inhibition at 250 micromolar)
33 | COC1OC(COCC(=O)O)C(O)C(OCc2ccccc2)C1NC(=O)C1CCNCC1 (single isomer, unassigned) [Compound 136] | − (0% to 35% inhibition at 250 micromolar)
34 | COC1OC(COCC(=O)O)C(O)C(OCc2ccccc2)C1NC(=O)C1CCC(CN)CC1 (single isomer, unassigned) [Compound 137] | ++ (61% to 80% inhibition at 250 micromolar)
35 | COC1OC(COCC(=O)O)C(O)C(OCc2ccccc2)C1NC(=O)C1CCC(CN)CC1 (single isomer, unassigned) [Compound 138] | − (0% to 35% inhibition at 250 micromolar)
36 | Nc1cccc(C(=O)N[C@H]2C(O)O[C@H](COCC(=O)O)[C@@H](O)[C@@H]2OCc2ccc(Br)cc2)c1 (some centres unmarked) [Compound 2] | ++ (61% to 80% inhibition at 250 micromolar)
37 | Nc1cccc(COC[C@H]2OC[C@H](NC(=O)c3ccccc3)[C@@H](OCC(=O)O)[C@@H]2O)c1 [Compound 56] | ++ (61% to 80% inhibition at 250 micromolar)
38 | CCOC1O[C@H](COCc2cccc(N)c2)[C@@H](O)[C@H](OCc2ccc(C(=O)O)cc2)[C@H]1NC(=O)c1ccc(Cl)cc1 (some centres unmarked) [Compound 65] | − (0% to 35% inhibition at 250 micromolar)
